# Molecular target: T1, recombinant human GR (Homo sapiens, UniProt P04150)
# T1 construct: purchased Panvera/Invitrogen P2812 (kit P2893)
# T1 sequence (P04150 1-777): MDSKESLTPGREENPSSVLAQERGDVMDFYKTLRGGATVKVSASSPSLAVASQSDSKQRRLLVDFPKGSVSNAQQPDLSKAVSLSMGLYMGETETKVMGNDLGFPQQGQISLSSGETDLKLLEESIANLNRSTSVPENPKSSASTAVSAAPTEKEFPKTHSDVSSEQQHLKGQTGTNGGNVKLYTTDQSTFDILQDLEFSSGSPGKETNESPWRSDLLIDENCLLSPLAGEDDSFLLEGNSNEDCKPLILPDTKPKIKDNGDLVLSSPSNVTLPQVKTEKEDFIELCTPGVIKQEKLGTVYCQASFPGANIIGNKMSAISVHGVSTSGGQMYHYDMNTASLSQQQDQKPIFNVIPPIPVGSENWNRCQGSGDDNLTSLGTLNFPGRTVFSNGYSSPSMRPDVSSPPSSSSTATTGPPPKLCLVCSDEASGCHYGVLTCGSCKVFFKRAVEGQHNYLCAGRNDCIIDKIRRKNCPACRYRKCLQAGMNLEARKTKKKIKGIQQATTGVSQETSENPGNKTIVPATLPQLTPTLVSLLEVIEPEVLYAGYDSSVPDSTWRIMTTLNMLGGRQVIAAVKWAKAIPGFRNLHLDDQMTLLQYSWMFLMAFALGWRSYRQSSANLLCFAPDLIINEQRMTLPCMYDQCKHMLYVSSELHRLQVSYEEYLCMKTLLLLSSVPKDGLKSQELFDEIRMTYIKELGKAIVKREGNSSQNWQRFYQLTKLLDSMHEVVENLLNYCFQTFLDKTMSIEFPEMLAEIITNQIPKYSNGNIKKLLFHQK
# Test: Human Glucocorticoid Receptor (GR) Assay, fluorescence polarization competition with GS Red tracer
# Details: 2 hours at room temperature, 100% control 10 μM Dexamethasone, XLfit model 205, read-out: Inhibition of GR binding, IC50
# Outline: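 Fluorescence polarization competition: recombinant human GR with GS Red tracer, stabilizing peptide and DTT in potassium phosphate/sodium molybdate/EDTA buffer. 2 h in dark at room temperature, read at ex 530/em 590 nm. Controls: DMSO (0%) and 10 μM dexamethasone (100%).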
row,SMILES,IC50 [nM]
1,"CCC(=O)O[C@]1(C(=O)SCC#N)CC[C@H]2[C@@H]3CCC4=Cc5c(cnn5-c5cccc(C(=O)NC6CCS(=O)(=O)C6)c5)C[C@]4(C)[C@H]3[C@@H](O)C[C@@]21C (stereo partly drawn) [Example 12, (1R,3aS,3bS,10aR,10bS,11S,12aS)-1-{[(Cyanomethyl)sulfanyl]carbonyl}-7-{3-[(1,1-dioxidotetrahydrothiophen-3-yl)carbamoyl]phenyl}-11-hydroxy-10a,12a-dimethyl-1,2,3,3a,3b,4,5,7,10,10a,10b,11,12,12a-tetradecahydrocyclopenta[5,6]naphtho[1,2-f]indazol-1-yl propanoate]",4.3
2,"CCC(=O)O[C@]1(C(=O)SCF)CC[C@H]2[C@@H]3CCC4=Cc5c(cnn5-c5cccc(C(=O)NC)c5)C[C@]4(C)[C@@]3(F)[C@@H](O)C[C@@]21C [Example 33, (1R,3aS,3bS,10aS, 10bR,11S,12aS)-10b-fluoro-1-{[(fluoromethyl)sulfanyl]carbonyl}-11-hydroxy-10a,12a-dimethyl-7[3-(methylcarbamoyl)phenyl]-1,2,3,3a,3b,4,5,7,10, 10a,10b,11,12,12a-tetradecahydrocyclo-penta[5,6]naphtho [1,2-f]indazol-1-yl propanoate]",5.2
3,"CCC(=O)O[C@]1(C(=O)SCF)[C@H](C)C[C@H]2[C@@H]3CCC4=Cc5c(cnn5-c5cccc(C(=O)N[C@H](C)C(N)=O)c5)C[C@]4(C)[C@@]3(F)[C@@H](O)C[C@@]21C [Example 26, (1R,2R,3aS,3bS, 10aS,10bR,11S,12aS)-7-(3-{[(1R)-2-amino-1-methyl-2-oxoethyl]carbamoyl}phenyl)-10b-fluoro-1-{[(fluoromethyl)-sulfanyl]carbonyl}-11-hydroxy-2,10a,12a-trimethyl-1,2,3,3a,3b,4,5,7,10, 10a,10b,11,12,12a-tetradecahydrocyclo-penta[5,6]naphtho [1,2-f]indazol-1-yl propanoate]",2
4,"COCC(=O)O[C@]1(C(=O)SCF)[C@H](C)C[C@H]2[C@@H]3CCC4=Cc5c(cnn5-c5cccc(C(=O)N[C@@H](C)C(N)=O)c5)C[C@]4(C)[C@@]3(F)[C@@H](O)C[C@@]21C [Example 22, (1R,2R,3aS,3bS,10aS,10bR,11S,12aS)-7-(3-{[(1S)-2-Amino-1-methyl-2-oxoethyl]carbamoyl}phenyl)-10b-fluoro-1-{[(fluoromethyl)sulfanyl]carbonyl}-11-hydroxy-2,10a,12a-trimethyl-1,2,3,3a,3b,4,5,7,10,10a,10b,11,12,12a-tetradecahydrocyclopenta[5,6]naphtho[1,2-f]indazol-1-yl methoxyacetate]",1.9
5,"COCC(=O)O[C@]1(C(=O)SCF)CC[C@H]2[C@@H]3CCC4=Cc5c(cnn5-c5cccc(C(=O)NCCSC)c5)C[C@]4(C)[C@H]3[C@@H](O)C[C@@]21C [Example 8, (1R,3aS,3bS,10aR,10bS,11S,12aS)-1-{[(Fluoromethyl)sulfanyl]carbonyl}-11-hydroxy-10a,12a-dimethyl-7-(3-{[2-(methylsulfanyl)ethyl]carbamoyl}phenyl)-1,2,3,3a,3b,4,5,7,10,10a,10b,11,12,12a-tetradecahydrocyclopenta[5,6]naphtho[1,2-f]indazol-1-yl methoxyacetate]",1.8
6,"COCC(=O)O[C@]1(C(=O)SCF)CC[C@H]2[C@@H]3CCC4=Cc5c(cnn5-c5cccc(C(=O)N6CCC[C@@H]6C(N)=O)c5)C[C@]4(C)[C@H]3[C@@H](O)C[C@@]21C [Example 16, (1R,3aS,3bS,10aR,10bS,11S, 12aS)-7-(3-{[(2R)-2-carba-moylpyrrolidin-1-yl]carbonyl}phenyl)-1-{[(fluoromethyl)sulfanyl]carbonyl}-11-hydroxy-10a,12a-dimethyl-1,2,3,3a,3b,4,5,7,10,10a,10b, 11,12,12a-tetradecahydro-cyclopenta[5,6]naphtho[1,2-f] indazol-1-yl methoxyacetate]",9
7,"CNC(=O)c1cccc(-n2ncc3c2C=C2CC[C@H]4[C@@H]5C[C@@H](C)[C@](OC(=O)COC)(C(=O)SCF)[C@@]5(C)C[C@H](O)[C@]4(F)[C@@]2(C)C3)c1 [Example 28, 1R,2R,3aS,3bS, 10aS,10bR,11S,12aS)-10b-fluoro-1-{[(fluoromethyl)sulfanyl] carbonyl}-11-hydroxy-2,10a,12a-trimethyl-7[3-(methylcarbamoyl)phenyl]-1,2,3,3a,3b,4,5,7,10, 10a,10b,11,12,12a-tetradecahydrocyclo-penta[5,6]naphtho [1,2-f]indazol-1-yl methoxyacetate]",2.3
8,"CCC(=O)O[C@]1(C(=O)SCF)CC[C@H]2[C@@H]3C[C@H](C)C4=Cc5c(cnn5-c5cccc(C(=O)N[C@H](C)C(N)=O)c5)C[C@]4(C)[C@H]3[C@@H](O)C[C@@]21C [Example 24, (1R,3aS,3bS,5S,10aR, 10bS,11S,12aS)-7-(3-{[(1R)-2-amino-1-methyl-2-oxoethyl]carbamoyl}phenyl)-1-{[(fluoromethyl)sulfanyl]carbonyl}-11-hydroxy-5,10a,12a-trimethyl-1,2,3,3a,3b,4,5,7,10, 10a,10b,11,12,12a-tetradecahydrocyclo-penta[5,6]naphtho [1,2-f]indazol-1-yl propanoate]",2.1

# More lines, now with the values ahead:
row,IC50 [nM],SMILES
1,3.6,"CCC(=O)O[C@]1(C(=O)SCF)CC[C@H]2[C@@H]3CCC4=Cc5c(cnn5-c5cccc(C(=O)NC6CCCC6)c5)C[C@]4(C)[C@H]3[C@@H](O)C[C@@]21C [Example 62, (1R,3aS,3bS,10aR, 10bS,11S,12aS)-7-[3-(cyclopentylcarbamoyl)phenyl]-1-{[(fluoromethyl)sulfanyl]carbonyl}-11-hydroxy-10a,12a-dimethyl-1,2,3,3a,3b,4,5,7,10, 10a,10b,11,12,12a-tetradecahydrocyclo-penta[5,6]naphtho [1,2-f]indazol-1-yl propanoate]"
2,1.9,"CCC(=O)O[C@]1(C(=O)SCF)[C@H](C)C[C@H]2[C@@H]3CCC4=Cc5c(cnn5-c5cccc(C(=O)NCc6cccnc6)c5)C[C@]4(C)[C@@]3(F)[C@@H](O)C[C@@]21C [Example 43, (1R,2R,3aS,3bS, 10aS,10bR,11S,12aS)-10b-fluoro-1-{[(fluoromethyl)sulfanyl]carbonyl}-11-hydroxy-2,10a,12a-trimethyl-7-{3-[(pyridin-3-ylmethyl)carbamoyl]phenyl}-1,2,3,3a,3b,4,5,7,10, 10a,10b,11,12,12a-tetradecahydrocyclo-penta[5,6]naphtho [1,2-f]indazol-1-yl propanoate]"
3,6.3,"CCC(=O)O[C@]1(C(=O)SCCO)CC[C@H]2[C@@H]3CCC4=Cc5c(cnn5-c5cccc(C(=O)N6CCC[C@@H]6C(N)=O)c5)C[C@]4(C)[C@H]3[C@@H](O)C[C@@]21C [Example 48, (1R,3aS,3bS,10aR, 10bS,11S,12aS)-7-(3-{[(2R)-2-carbamoyl-pyrrolidin-1-yl]carbonyl}phenyl)-11-hydroxy-1-{[(2-hydroxyethyl)sulfanyl]carbonyl}-10a,12a-dimethyl-1,2,3,3a,3b,4,5,7,10, 10a,10b,11,12,12a-tetradecahydrocyclo-penta[5,6]naphtho [1,2-f]indazol-1-yl propanoate]"
4,3.6,"CCC(=O)O[C@]1(C(=O)SCF)CC[C@H]2[C@@H]3CCC4=Cc5c(cnn5-c5cccc(C(=O)N6CCC[C@@H]6C(N)=O)c5)C[C@]4(C)[C@@]3(F)[C@@H](O)C[C@@]21C [Example 61, (1R,3aS,3bS,10aS, 10bR,11S,12aS)-7-(3-{[(2R)-2-carbamoyl-pyrrolidin-1-yl]carbonyl}phenyl)-10b-fluoro-1-{[(fluoromethyl)sulfanyl]carbonyl}-11-hydroxy-10a,12a-dimethyl-1,2,3,3a,3b,4,5,7,10, 10a,10b,11,12,12a-tetradecahydrocyclo-penta[5,6]naphtho [1,2-f]indazol-1-yl propanoate]"
5,7.5,"COCC(=O)O[C@]1(C(=O)SCF)[C@H](C)C[C@H]2[C@@H]3CCC4=Cc5c(cnn5-c5cccc(C(=O)N6CCC[C@@H]6C(N)=O)c5)C[C@]4(C)[C@@]3(F)[C@@H](O)C[C@@]21C [Example 47, (1R,2R,3aS,3bS, 10aS,10bR,11S,12aS)-7-(3-{[(2R)-2-carbamoyl-pyrrolidin-1-yl]carbonyl}phenyl)-10b-fluoro-1-{[(fluoromethyl)sulfanyl]carbonyl}-11-hydroxy-2,10a,12a-trimethyl-1,2,3,3a,3b,4,5,7,10, 10a,10b,11,12,12a-tetradecahydrocyclo-penta[5,6]naphtho [1,2-f]indazol-1-yl methoxyacetate]"

# Reference: patent publication US20100256104A1, “NOVEL AMIDE COMPOUNDS” (ASTRAZENECA R&D, priority 2009, published 2010)
